Assay results as given in paper PMC10487430, “Dual Modulator of ASIC Channels and GABAA Receptors from Thyme Alters Fear-Related Hippocampal Activity” (International Journal of Molecular Sciences, 2023).

Key:
[1] = target: T1, α1β2γ2 GABAA receptor (Mus musculus, UniProt P22723+P62812+P63137); experiment: two-electrode voltage clamp in Xenopus oocytes; potentiation of currents induced by […] GABA; format: cell-based
T1 construct: gene Gabra1; murine α1, β2, and γ2 GABAA subunits expressed in Xenopus laevis oocytes; with GABAA receptor β2 (Gabrb2) and γ2 (Gabrg2) subunits

[2] = target: T2, rat ASIC1a (rASIC1a) (Rattus norvegicus, UniProt P55926); experiment: two-electrode voltage clamp in Xenopus oocytes; inhibition of pH […].0-induced currents; format: cell-based
T2 construct: gene Asic1; homomeric rat ASIC1a expressed in Xenopus laevis oocytes
T2 sequence (P55926 1-526): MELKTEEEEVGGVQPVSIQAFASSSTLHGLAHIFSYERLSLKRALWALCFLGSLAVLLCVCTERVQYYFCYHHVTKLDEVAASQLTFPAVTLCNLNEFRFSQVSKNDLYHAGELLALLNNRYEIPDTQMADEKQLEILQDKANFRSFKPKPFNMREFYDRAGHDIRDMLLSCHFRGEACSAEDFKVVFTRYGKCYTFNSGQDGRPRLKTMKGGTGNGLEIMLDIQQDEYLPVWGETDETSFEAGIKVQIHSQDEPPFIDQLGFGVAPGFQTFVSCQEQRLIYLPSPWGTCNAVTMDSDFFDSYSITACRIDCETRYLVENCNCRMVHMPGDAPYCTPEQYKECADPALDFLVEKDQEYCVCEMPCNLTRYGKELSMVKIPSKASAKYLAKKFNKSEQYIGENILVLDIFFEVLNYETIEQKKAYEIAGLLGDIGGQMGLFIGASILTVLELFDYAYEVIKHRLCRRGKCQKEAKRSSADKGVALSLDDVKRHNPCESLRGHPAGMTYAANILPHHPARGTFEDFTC

T1 sequence (P62812 28-455): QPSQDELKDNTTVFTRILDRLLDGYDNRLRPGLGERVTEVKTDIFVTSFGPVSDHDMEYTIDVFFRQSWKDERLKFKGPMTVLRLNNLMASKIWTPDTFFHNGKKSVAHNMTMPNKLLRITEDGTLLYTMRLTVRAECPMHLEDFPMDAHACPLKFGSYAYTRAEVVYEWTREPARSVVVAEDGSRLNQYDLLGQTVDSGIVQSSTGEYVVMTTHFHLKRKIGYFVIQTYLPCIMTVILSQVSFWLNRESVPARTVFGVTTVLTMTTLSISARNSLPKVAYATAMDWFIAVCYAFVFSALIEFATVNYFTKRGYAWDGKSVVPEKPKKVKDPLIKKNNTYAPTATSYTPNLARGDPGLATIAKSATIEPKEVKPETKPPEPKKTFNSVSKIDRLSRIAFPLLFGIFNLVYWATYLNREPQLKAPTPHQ
T1 sequence (P63137 26-512): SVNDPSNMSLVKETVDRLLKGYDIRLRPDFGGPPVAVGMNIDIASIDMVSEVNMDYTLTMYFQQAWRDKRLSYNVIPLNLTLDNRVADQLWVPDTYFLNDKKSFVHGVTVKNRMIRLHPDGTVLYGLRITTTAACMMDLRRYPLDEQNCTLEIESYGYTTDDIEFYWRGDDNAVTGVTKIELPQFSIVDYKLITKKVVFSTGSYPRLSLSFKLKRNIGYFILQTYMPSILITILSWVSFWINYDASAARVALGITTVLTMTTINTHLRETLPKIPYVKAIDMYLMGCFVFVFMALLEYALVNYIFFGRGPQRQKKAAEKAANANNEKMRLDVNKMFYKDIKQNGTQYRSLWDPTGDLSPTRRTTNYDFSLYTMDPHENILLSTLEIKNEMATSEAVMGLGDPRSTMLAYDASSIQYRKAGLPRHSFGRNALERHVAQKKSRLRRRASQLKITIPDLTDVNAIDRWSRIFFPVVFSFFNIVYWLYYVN
T1 sequence (P22723 39-474): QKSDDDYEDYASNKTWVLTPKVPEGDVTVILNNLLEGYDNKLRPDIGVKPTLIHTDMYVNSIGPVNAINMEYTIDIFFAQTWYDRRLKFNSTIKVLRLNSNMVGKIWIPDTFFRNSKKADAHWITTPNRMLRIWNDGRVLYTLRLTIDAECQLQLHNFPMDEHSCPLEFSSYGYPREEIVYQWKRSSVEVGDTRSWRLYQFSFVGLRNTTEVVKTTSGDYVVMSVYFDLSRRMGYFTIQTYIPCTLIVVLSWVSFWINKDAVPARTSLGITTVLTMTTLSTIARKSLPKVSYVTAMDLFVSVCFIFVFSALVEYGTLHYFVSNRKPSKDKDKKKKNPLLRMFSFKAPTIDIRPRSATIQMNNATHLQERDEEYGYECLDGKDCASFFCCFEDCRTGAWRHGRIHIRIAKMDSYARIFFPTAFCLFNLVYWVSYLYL

EC50 [1]: 0.56 ± 0.04 µM | IC50 [2]: 198 ± 19 µM
SMILES: O=C(O)C[C@H](C(=O)O)[C@H](OC(=O)[C@@H]1C(C(=O)O[C@@H](C(=O)O)[C@@H](CC(=O)O)C(=O)O)=Cc2cc(O)c(O)cc2[C@H]1c1ccc(O)c(O)c1)C(=O)O [sevanol]
